Each structure is given as a SMILES string. Read-outs that look alike come from different tables or passages of the source.

Consider 14 molecules from patent US8916579B2, “5-fluoropyrimidinone derivatives” (Dow AgroSciences, LLC., priority 2009, dated 2014).

For data set [1], the system named is Mycosphaerella graminicola; anamorph: Septoria tritici; Bayer code SEPTTR. The data set can be described thus: Fungicidal activity: leaf blotch of wheat, greenhouse wheat plants (variety Yuma), percent disease control. In kind it is in vivo. As to conditions: Zymoseptoria tritici, 100 ppm, wheat plants. The procedure:
Evaluation of Fungicidal Activity: Leaf Blotch of Wheat (Mycosphaerella graminicola; anamorph: Septoria tritici; Bayer code SEPTTR)
Wheat plants (variety Yuma) were grown from seed in a greenhouse in 50% mineral soil/50% soil-less Metro mix until the first leaf was fully emerged, with 7-10 seedlings per pot. These plants were inoculated with an aqueous spore suspension of Septoria tritici either prior to or after fungicide treatments. After inoculation the plants were kept in 100% relative humidity (one day in a dark dew chamber followed by two to three days in a lighted dew chamber) to permit spores to germinate and infect the leaf. The plants were then transferred to a greenhouse for disease to develop.
The effectiveness of the test compounds in controlling disease was determined by assessing the severity of disease on treated plants, then converting the severity to percent control based on the level of disease on untreated, inoculated plants. • In each case of Table II the rating scale is as follows: […]

The mark [2] stands for this setting: 24 h, One-Day Protectant (1DP), read-out: SEPTTR 100 PPM 1DP (% Disease Control rating).
Setting [3] is: 72 h, Three-Day Curative (3DC), read-out: SEPTTR 100 PPM 3DC (% Disease Control rating).

As a reminder, the melting point is the temperature of the solid-liquid transition. `O=C(Nc1ccccc1Cl)Nc1nc(=O)n(CC2CC2)cc1F` [Compound 85, 1-(2-chlorophenyl)-3-(1-(cyclopropylmethyl)-5-fluoro-2-oxo-1,2-dihydropyrimidin-4-yl)urea] returned a melting point of 197 to 199 °C. Moreover, the pest or weed control at 100 ppm in data set [1] (setting [2]) was 0 to 25%. For the same molecule, in data set [1] (setting [3]), the pest or weed control at 100 ppm lay within 0 to 25%.
With `CSCn1cc(F)c(NC(=O)Nc2ccccc2Cl)nc1=O` [Compound 86], the melting point lay within 181.8 to 183.5 °C. In data set [1] (setting [2]), the pest or weed control at 100 ppm lay within 26 to 50%. In data set [1] (setting [3]), the pest or weed control at 100 ppm fell in the range of 26 to 50%.
In the case of `CCCCCNC(=O)Nc1nc(=O)n(CC2CC2)cc1F` [Compound 87], the melting point is 113 to 114.9 °C. Besides, the pest or weed control at 100 ppm in data set [1] (setting [2]) was 0 to 25%. For the same molecule, the pest or weed control at 100 ppm in data set [1] (setting [3]) was in the range of 51 to 75%.
In turn, `Cc1ccc(NC(=O)Nc2nc(=O)n(CC3CC3)cc2F)cc1` [Compound 88] showed a melting point of 205.6 to 207.5 °C. Further, the pest or weed control at 100 ppm in data set [1] (setting [2]) fell in the range of 0 to 25%. Moreover, in data set [1] (setting [3]), the pest or weed control at 100 ppm is 51 to 75%.
Turning to `CCCCCNC(=O)Nc1nc(=O)n(Cc2cccnc2)cc1F` [Compound 89], the melting point lay in the range of 146 to 147.6 °C. Besides, in data set [1] (setting [2]), the pest or weed control at 100 ppm fell in the range of 0 to 25%. Also, the pest or weed control at 100 ppm in data set [1] (setting [3]) was 26 to 50%.
In the case of `Cc1ccc(NC(=O)Nc2nc(=O)n(Cc3cccnc3)cc2F)cc1` [Compound 90], the melting point fell in the range of 178.2 to 180 °C. Further, in data set [1] (setting [2]), the pest or weed control at 100 ppm is 0 to 25%. In data set [1] (setting [3]), the pest or weed control at 100 ppm was 0 to 25%.
`O=C(Nc1ccccc1Cl)Nc1nc(=O)n(Cc2cccnc2)cc1F` [Compound 91] displayed a melting point of 210.5 to 212.3 °C. For the same molecule, in data set [1] (setting [2]), the pest or weed control at 100 ppm lay in the range of 0 to 25%. In addition, the pest or weed control at 100 ppm in data set [1] (setting [3]) lay in the range of 0 to 25%.
In turn, `CCCCCNC(=O)Nc1nc(=O)n(CSC)cc1F` [Compound 92] gave a melting point of 100.2 to 101.8 °C. Besides, the pest or weed control at 100 ppm in data set [1] (setting [2]) lay in the range of 76 to 100%. Also, the pest or weed control at 100 ppm in data set [1] (setting [3]) fell in the range of 76 to 100%.
For `CSCn1cc(F)c(NC(=O)Nc2ccc(C)cc2)nc1=O` [Compound 93], the melting point was in the range of 188.8 to 190.2 °C. Besides, in data set [1] (setting [2]), the pest or weed control at 100 ppm fell in the range of 0 to 25%. Further, the pest or weed control at 100 ppm in data set [1] (setting [3]) fell in the range of 51 to 75%.
For `O=C(Nc1nc(=O)n(CC2CCCO2)cc1F)c1ccccc1F` (stereo not drawn) [Compound 96] the same measures were 119.8 to 121.9 °C, 0 to 25% and 26 to 50%.
The molecule `CC(=O)Nc1nc(=O)n(CC(C)C)cc1F` [Compound 97] returned a melting point of 134.5 to 136.5 °C. The pest or weed control at 100 ppm in data set [1] (setting [2]) is 26 to 50%. Moreover, the pest or weed control at 100 ppm in data set [1] (setting [3]) lay within 26 to 50%.
In turn, `CC(C)Cn1cc(F)c(NC(=O)c2ccccc2F)nc1=O` [Compound 98] gave a melting point of 161.3 to 163 °C. In addition, the pest or weed control at 100 ppm in data set [1] (setting [2]) fell in the range of 0 to 25%. Moreover, in data set [1] (setting [3]), the pest or weed control at 100 ppm fell in the range of 0 to 25%.
For the molecule `CC(C)Cn1cc(F)c(NC(=O)c2cccs2)nc1=O` [Compound 99], the melting point was 125.6 to 127.5 °C. In addition, the pest or weed control at 100 ppm in data set [1] (setting [2]) lay within 0 to 25%. Further, in data set [1] (setting [3]), the pest or weed control at 100 ppm lay in the range of 76 to 100%.
Take `CC(C)Cn1cc(F)c(NCc2cccs2)nc1=O` [Compound 106]: the melting point fell in the range of 88.8 to 91.7 °C. For the same molecule, the pest or weed control at 100 ppm in data set [1] (setting [2]) was 26 to 50%. For the same molecule, the pest or weed control at 100 ppm in data set [1] (setting [3]) was in the range of 26 to 50%.
